Results as given in ChEMBL document CHEMBL1123168 (J Med Chem, 1986).

Tests used:
[1] = target: Phosphodiesterase 3 (Homo sapiens, UniProt Q14432+Q13370); experiment: Cardiotonic effect by inhibition of cAMP phosphodiesterase (PDE III); assay type: protein assay, Canis lupus familiaris
[2] = test system: Canis familiaris; experiment: Cardiotonic activity by increasing heart rate (HR) in phenobarbital-anesthetized dogs after intravenous administration; assay type: functional, Canis lupus familiaris
[3] = test system: Canis familiaris; experiment: Cardiotonic activity by decreasing mean arterial blood pressure(MAP) in phenobarbital-anesthetized dogs after intravenous administration; assay type: functional, Canis lupus familiaris, Artery
[4] = test system: Canis familiaris; experiment: Cardiotonic activity in increasing contractility in phenobarbital-anesthetized dogs after intravenous administration; assay type: functional; conditions: Canis lupus familiaris

CCCc1nc(O)c(C#N)cc1-c1ccncc1
IC50 [1]: 38 µM | Heart rate [2]: 25 beats min-1 | MAP [3]: 20 mmHg | ED50 [4]: 0.748 mg/kg

Cc1nc(O)c(N)cc1-c1ccncc1
IC50 [1]: 31 µM | Heart rate [2]: 9 beats min-1 | MAP [3]: 10 mmHg | ED50 [4]: 0.055 mg/kg

CCc1nc(O)c(C#N)cc1-c1ccncc1
IC50 [1]: 12 µM | Heart rate [2]: 19 beats min-1 | MAP [3]: 12 mmHg | ED50 [4]: 0.12 mg/kg

Nc1cc(-c2ccncc2)c[nH]c1=O [INAMRINONE]
Heart rate [2]: 13 beats min-1 | MAP [3]: 16 mmHg | ED50 [4]: 1.89 mg/kg

Cc1[nH]c(=O)c(C#N)cc1-c1ccncc1 [MILRINONE]
Heart rate [2]: 14 beats min-1 | MAP [3]: 10 mmHg | ED50 [4]: 0.037 mg/kg
